Measurements from paper PMC11013998, “Preparation of Peptoid Antifreeze Agents and Their Structure–Property Relationship” (Polymers, 2024).

System: Mouse fibroblasts (L929)
Assay: Cytotoxicity test, Cell Counting Kit-8 (CCK8)
Assay type: cell-based
Settings: L929 cells, 10 mg/mL in culture medium, 24 h, CCK-8, OD at 450 nm; non-cytotoxic if higher than 75%; tested at least three times
Experimental: Cytotoxicity testing is a crucial strategy used to test the safety of biological materials. This experiment employed a low-speed centrifuge (SC-3610, Anhui Zhongke Zhongjia scientific Instrument Co., Ltd., Hefei, China), a cell incubator (CCL-170B-8, ESCO, Kuala Lumpur, Singapore) and a multifunctional microplate detector (Synergy H1, Bio-Tek, Winooski, VT, USA). In this test, the cytotoxicity of peptoid oligomers was detected using Cell Counting Kit-8 (CCK8, Finn Biological Co., Ltd., Wuhan, China). Mouse fibroblasts (L929) were cultured and subcultured to ensure that they met the experimental requirements. The old culture medium was removed from the cell dish, and 1 mL trypsin was added to digest the cells. A total of 2 mL of the new culture medium was added to the cell culture dish, and the cells were centrifuged to the bottom of the centrifuge tube. The culture medium was removed. An appropriate amount of new culture medium was added, and the centrifuge tube was shaken gently to disperse the cells evenly. […] Finally, the Optical Density (OD) at 450 nm was measured using a BioTek multifunctional microplate detector. The relative survival rate (σ) could be calculated using the following formula:(1) σ=OD1−OD0/OD2−OD0×100% where OD1 was the average OD of the experimental group, OD2 was the average OD of the negative control group, and OD0 was the average OD of the blank control group. […]

With C[S+](C)[O-] [DMSO, dimethyl sulfoxide] the relative cell viability was 61.9%.
